# Test results as given in patent publication US8048927B2 (Besins Healthcare Luxembourg, priority 2004, dated 2011).
# Assay: pharmacokinetics of 4-hydroxy tamoxifen gel in healthy premenopausal women (Example 3)
# Format: in vivo, human
# Settings: for Plasma concentration of 4-hydroxy tamoxifen, Range: First cycle Day 1, 0 hr; for AUC0-24, Mean ± SD / Cav = AUC0-24/24, Mean ± SD / Cmax, Mean ± SD / tmax, Mean ± SD: last administration, day 25 of second cycle
# Procedure: Each participant applied the gel daily for the duration of two menstrual cycles.
# At the end of a menstrual cycle, each patient received a single dose, after which serial blood samples were collected at 0, 0.5, 1, 1.5, 2, 3, 4, 6, 12, 18, 24, 36, 48, and 72 hours.
# On the first day of the following menstruation, treatment, which consisted of daily application of the gel over two menstrual cycles, began. Blood samples were collected 24 hours following the morning application of gel on days 7, 20 and 25 of the first and second cycles. On the last day of administration, day 25 of the second menstrual cycle, serial blood samples were collected prior to application and at 0.5, 1, 1.5, 2, 3, 4, 6, 12, 18, 24, 36, 48, and 72 hours after application of the gel.
compound,measurement,setting,value
"CCC(=C(c1ccc(O)cc1)c1ccc(OCCN(C)C)cc1)c1ccccc1 [4-hydroxy tamoxifen, 1-[4-(2-N-dimethylaminoethoxy)phenyl]-1-(4-hydroxyphenyl)-2-phenylbut-1-ene]","Plasma concentration of 4-hydroxy tamoxifen, Range","0.5 mg/day, gel 20 mg/100 g",(0-17.2) pg/mL
same,"Plasma concentration of 4-hydroxy tamoxifen, Mean ± SD","0.5 mg/day, gel 20 mg/100 g, First cycle Day 7, 24 hr after application",6.4 ± 5.6 pg/mL
same,"Plasma concentration of 4-hydroxy tamoxifen, Mean ± SD","0.5 mg/day, gel 20 mg/100 g, First cycle Day 20, 24 hr after application",13.6 ± 7.9 pg/mL
same,"Plasma concentration of 4-hydroxy tamoxifen, Mean ± SD","0.5 mg/day, gel 20 mg/100 g, First cycle Day 25, 24 hr after application",23.9 ± 23.4 pg/mL
same,"Plasma concentration of 4-hydroxy tamoxifen, Mean ± SD","0.5 mg/day, gel 20 mg/100 g, Second cycle Day 7, 24 hr after application",25.2 ± 16.1 pg/mL
same,"Plasma concentration of 4-hydroxy tamoxifen, Mean ± SD","0.5 mg/day, gel 20 mg/100 g, Second cycle Day 20, 24 hr after application",15.7 ± 14.0 pg/mL
same,"Plasma concentration of 4-hydroxy tamoxifen, Mean ± SD","0.5 mg/day, gel 20 mg/100 g, Second cycle Day 25, 0 hr (24 hours after Day 24 application, prior to final application)",10.8 ± 9.9 pg/mL
same,"Plasma concentration of 4-hydroxy tamoxifen, Mean ± SD","0.5 mg/day, gel 20 mg/100 g, Second cycle Day 25, 0.5 hr after application",10.9 ± 7.4 pg/mL
same,"Plasma concentration of 4-hydroxy tamoxifen, Mean ± SD","0.5 mg/day, gel 20 mg/100 g, Second cycle Day 25, 1 hr after application",10.4 ± 7.8 pg/mL
same,"Plasma concentration of 4-hydroxy tamoxifen, Mean ± SD","0.5 mg/day, gel 20 mg/100 g, Second cycle Day 25, 1.5 hr after application",9.0 ± 8.2 pg/mL
same,"Plasma concentration of 4-hydroxy tamoxifen, Mean ± SD","0.5 mg/day, gel 20 mg/100 g, Second cycle Day 25, 2 hr after application",11.8 ± 9.5 pg/mL
same,"Plasma concentration of 4-hydroxy tamoxifen, Mean ± SD","0.5 mg/day, gel 20 mg/100 g, Second cycle Day 25, 3 hr after application",10.0 ± 7.9 pg/mL
same,"Plasma concentration of 4-hydroxy tamoxifen, Mean ± SD","0.5 mg/day, gel 20 mg/100 g, Second cycle Day 25, 4 hr after application",9.2 ± 8.3 pg/mL
same,"Plasma concentration of 4-hydroxy tamoxifen, Mean ± SD","0.5 mg/day, gel 20 mg/100 g, Second cycle Day 25, 6 hr after application",11.4 ± 8.5 pg/mL
same,"Plasma concentration of 4-hydroxy tamoxifen, Mean ± SD","0.5 mg/day, gel 20 mg/100 g, Second cycle Day 25, 12 hr after application",11.0 ± 9.7 pg/mL
same,"Plasma concentration of 4-hydroxy tamoxifen, Mean ± SD","0.5 mg/day, gel 20 mg/100 g, Second cycle Day 25, 18 hr after application",9.7 ± 8.8 pg/mL
same,"Plasma concentration of 4-hydroxy tamoxifen, Mean ± SD","0.5 mg/day, gel 20 mg/100 g, Second cycle Day 26, 24 hr after last application",12.4 ± 9.4 pg/mL
same,"Plasma concentration of 4-hydroxy tamoxifen, Mean ± SD","0.5 mg/day, gel 20 mg/100 g, Second cycle Day 26, 36 hr after last application",10.9 ± 6.9 pg/mL
same,"Plasma concentration of 4-hydroxy tamoxifen, Mean ± SD","0.5 mg/day, gel 20 mg/100 g, Second cycle Day 27, 48 hr after last application",12.1 ± 6.5 pg/mL
same,"Plasma concentration of 4-hydroxy tamoxifen, Mean ± SD","0.5 mg/day, gel 20 mg/100 g, Second cycle Day 28, 72 hr after last application",9.9 ± 7.1 pg/mL
same,Plasma concentration of 4-hydroxy tamoxifen,"0.5 mg/day, gel 20 mg/100 g, after the second cycle, +8 days, LOQ <5 pg/mL",<LOQ
same,"Plasma concentration of 4-hydroxy tamoxifen, maximum","0.5 mg/day, gel 20 mg/100 g, after the second cycle, +12 days",(maximum 9.09) pg/mL
same,Plasma concentration of 4-hydroxy tamoxifen,"0.5 mg/day, gel 20 mg/100 g, after the second cycle, +20 days",0 pg/mL
same,"AUC0-24, Mean ± SD","0.5 mg/day, gel 20 mg/100 g",256.3 ± 205.3 pg·h/mL
same,"Cav = AUC0-24/24, Mean ± SD","0.5 mg/day, gel 20 mg/100 g",10.7 ± 8.5 pg/mL
same,"Cmax, Mean ± SD","0.5 mg/day, gel 20 mg/100 g",17.0 ± 8.5 pg/mL
same,"tmax, Mean ± SD","0.5 mg/day, gel 20 mg/100 g",40 ± 81 h
same,"Plasma concentration of 4-hydroxy tamoxifen, Range","1 mg/day, gel 20 mg/100 g",(0-13.9) pg/mL
same,"Plasma concentration of 4-hydroxy tamoxifen, Mean ± SD","1 mg/day, gel 20 mg/100 g, First cycle Day 7, 24 hr after application",15.2 ± 9.7 pg/mL
same,"Plasma concentration of 4-hydroxy tamoxifen, Mean ± SD","1 mg/day, gel 20 mg/100 g, First cycle Day 20, 24 hr after application",17.3 ± 9.5 pg/mL
same,"Plasma concentration of 4-hydroxy tamoxifen, Mean ± SD","1 mg/day, gel 20 mg/100 g, First cycle Day 25, 24 hr after application",15.5 ± 6.6 pg/mL
same,"Plasma concentration of 4-hydroxy tamoxifen, Mean ± SD","1 mg/day, gel 20 mg/100 g, Second cycle Day 7, 24 hr after application",17.4 ± 11.2 pg/mL
same,"Plasma concentration of 4-hydroxy tamoxifen, Mean ± SD","1 mg/day, gel 20 mg/100 g, Second cycle Day 20, 24 hr after application",14.8 ± 6.5 pg/mL
same,"Plasma concentration of 4-hydroxy tamoxifen, Mean ± SD","1 mg/day, gel 20 mg/100 g, Second cycle Day 25, 0 hr (24 hours after Day 24 application, prior to final application)",15.7 ± 17.1 pg/mL
same,"Plasma concentration of 4-hydroxy tamoxifen, Mean ± SD","1 mg/day, gel 20 mg/100 g, Second cycle Day 25, 0.5 hr after application",13.5 ± 9.1 pg/mL
same,"Plasma concentration of 4-hydroxy tamoxifen, Mean ± SD","1 mg/day, gel 20 mg/100 g, Second cycle Day 25, 1 hr after application",10.8 ± 6.6 pg/mL
same,"Plasma concentration of 4-hydroxy tamoxifen, Mean ± SD","1 mg/day, gel 20 mg/100 g, Second cycle Day 25, 1.5 hr after application",11.8 ± 8.0 pg/mL
same,"Plasma concentration of 4-hydroxy tamoxifen, Mean ± SD","1 mg/day, gel 20 mg/100 g, Second cycle Day 25, 2 hr after application",10.7 ± 6.9 pg/mL
same,"Plasma concentration of 4-hydroxy tamoxifen, Mean ± SD","1 mg/day, gel 20 mg/100 g, Second cycle Day 25, 3 hr after application",11.4 ± 7.9 pg/mL
same,"Plasma concentration of 4-hydroxy tamoxifen, Mean ± SD","1 mg/day, gel 20 mg/100 g, Second cycle Day 25, 4 hr after application",11.2 ± 7.3 pg/mL
same,"Plasma concentration of 4-hydroxy tamoxifen, Mean ± SD","1 mg/day, gel 20 mg/100 g, Second cycle Day 25, 6 hr after application",10.7 ± 6.4 pg/mL
same,"Plasma concentration of 4-hydroxy tamoxifen, Mean ± SD","1 mg/day, gel 20 mg/100 g, Second cycle Day 25, 12 hr after application",11.8 ± 7.8 pg/mL
same,"Plasma concentration of 4-hydroxy tamoxifen, Mean ± SD","1 mg/day, gel 20 mg/100 g, Second cycle Day 25, 18 hr after application",12.2 ± 8.3 pg/mL
same,"Plasma concentration of 4-hydroxy tamoxifen, Mean ± SD","1 mg/day, gel 20 mg/100 g, Second cycle Day 26, 24 hr after last application",18.6 ± 14.2 pg/mL
same,"Plasma concentration of 4-hydroxy tamoxifen, Mean ± SD","1 mg/day, gel 20 mg/100 g, Second cycle Day 26, 36 hr after last application",13.4 ± 7.5 pg/mL
same,"Plasma concentration of 4-hydroxy tamoxifen, Mean ± SD","1 mg/day, gel 20 mg/100 g, Second cycle Day 27, 48 hr after last application",12.5 ± 6.0 pg/mL
same,"Plasma concentration of 4-hydroxy tamoxifen, Mean ± SD","1 mg/day, gel 20 mg/100 g, Second cycle Day 28, 72 hr after last application",9.9 ± 5.8 pg/mL
same,"T(1stC < LOQ), first timepoint at which the plasma concentration was below the limit of quantification, Mean ± SD","1 mg/day, gel 20 mg/100 g, after last administration",274 ± 141 h
same,"Plasma concentration of 4-hydroxy tamoxifen, Mean ± SD","1 mg/day, gel 20 mg/100 g, after the second cycle, +5 days",5.8 ± 5.2 pg/mL
same,Plasma concentration of 4-hydroxy tamoxifen,"1 mg/day, gel 20 mg/100 g, after the second cycle, +20 days, LOQ <5 pg/mL",<LOQ
same,"AUC0-24, Mean ± SD","1 mg/day, gel 20 mg/100 g",300.9 ± 190.8 pg·h/mL
same,"Cav = AUC0-24/24, Mean ± SD","1 mg/day, gel 20 mg/100 g",12.5 ± 7.9 pg/mL
same,"Cmax, Mean ± SD","1 mg/day, gel 20 mg/100 g",21.0 ± 4.0 pg/mL
same,"tmax, Mean ± SD","1 mg/day, gel 20 mg/100 g",24 ± 18 h
same,"Plasma concentration of 4-hydroxy tamoxifen, Range","1 mg/day, gel 57 mg/100 g",(0-9.5) pg/mL
same,"Plasma concentration of 4-hydroxy tamoxifen, Mean ± SD","1 mg/day, gel 57 mg/100 g, First cycle Day 7, 24 hr after application",14.4 ± 13.1 pg/mL
same,"Plasma concentration of 4-hydroxy tamoxifen, Mean ± SD","1 mg/day, gel 57 mg/100 g, First cycle Day 20, 24 hr after application",18.1 ± 15.8 pg/mL
same,"Plasma concentration of 4-hydroxy tamoxifen, Mean ± SD","1 mg/day, gel 57 mg/100 g, First cycle Day 25, 24 hr after application",19.8 ± 16.2 pg/mL
same,"Plasma concentration of 4-hydroxy tamoxifen, Mean ± SD","1 mg/day, gel 57 mg/100 g, Second cycle Day 7, 24 hr after application",22.2 ± 16.4 pg/mL
same,"Plasma concentration of 4-hydroxy tamoxifen, Mean ± SD","1 mg/day, gel 57 mg/100 g, Second cycle Day 20, 24 hr after application",24.4 ± 20.1 pg/mL
same,"Plasma concentration of 4-hydroxy tamoxifen, Mean ± SD","1 mg/day, gel 57 mg/100 g, Second cycle Day 25, 0 hr (24 hours after Day 24 application, prior to final application)",27.2 ± 20.8 pg/mL
